Where a name gives a salt, the structure may show the parent alone. Read-outs that look alike come from different tables or passages of the source.
Legend:
[1] = test system: A/Puerto Rico/8/34 (H1N1; PR8); test: microbe, parasite or virus in culture; type: cell-based; details: Influenza A virus, read-out: EC50 against Influenza Virus PR8
[2] = test system: A/Hong Kong/8/68 (H3N2; HK); test: microbe, parasite or virus in culture; type: cell-based; details: Influenza A virus, read-out: EC50 against Influenza Virus HK
[3] = test system: B/Lee/40 (Lee); test: microbe, parasite or virus in culture; type: cell-based, influenza B virus; details: unidentified influenza virus, MDCK, read-out: EC50 against Influenza Virus Lee
[4] = in vitro; details: dog
[5] = test system: influenza A and B viruses (PR8, HK, Lee); test: Cytopathic effect assay, values given across the viral strains tested; type: cell-based; details: Influenza A virus
[6] = test system: PR8 virus; test: microbe, parasite or virus in culture; type: cell-based, influenza A virus; details: for antiviral activity on exposure during viral adsorption: 0–1 h at 4 °C, compound 1 10 µM, EGCG 1 µM
[7] = target: influenza A viral polymerase (Influenza A virus, UniProt P03428+P03431+P03433); type: cell-based
[8] = test system: PR8 virus; type: cell-based, influenza A virus
[9] = test system: MDCK cells; details: 2-day treatment, concentrations above 0.41 µM
[10] = test system: PR8 virus; details: MDCK cells, subtoxic concentrations, 1 day
[11] = test system: PR8 virus; details: 3 or 30 µM, 5 h post-infection
Method: For fluorescence microscopy, PR8 virus-infected MDCK cells (MOI, 3) seeded onto 4-well slides (8.5 × 10^4 cells per well) were treated with DMSO (delivery vehicle), compound 1, or RBV at 33 °C for 5 h. After fixing and permeabilization, viral NP was visualized using an anti-NP antibody (Santa Cruz Biotechnology, Santa Cruz, CA, USA), followed by an Alexa 488-conjugated goat anti-mouse IgG (Invitrogen) [10]. Cells were counterstained with a Vectashield mounting medium containing DAPI (Vector Laboratories, Burlingame, CA, USA). Images were captured under a Zeiss LSM 700 confocal microscope (Carl Zeiss, Thornwood, NY, USA).

[12] = in vitro; details: dog; remark: listed apart in the source
[13] = test system: MDCK cells; test: Fluorescein diacetate-based cell viability assay, mock-infected cells (cytotoxicity)
[14] = target: NA (Influenza A virus, UniProt P03468); test: NA activity assay (NA-XTD kit) with purified PR8 virus; type: biochemical, influenza A virus PR8; details: maximum concentration of 30 µM
Method: An NA activity assay was performed by using the NA-XTD Influenza Neuraminidase assay kit (Applied Biosystems, Foster City, CA, USA) [25, 26]. The influenza A virus PR8 (2.8 × 10^3 PFU) was mixed with the same volume of compounds at 37 °C for 20 min. After an addition of NA-XTD substrate, the mixture was incubated at room temperature for 30 min. The luminescent signal was maximized by the addition of an NA-XTD accelerator according to the manufacturer’s instructions and read using a microplate luminometer (Centro LB960 system; Berthold Technologies, Bad Wildbad, Germany). Half maximum inhibitory concentrations (IC50s) were determined using GraphPad Prism 8.4.2.

[15] = A/Puerto Rico/8/34 (H1N1), MDCK cells
[16] = A/Hong Kong/8/68 (H3N2), MDCK cells
[17] = PR8, HK and Lee strains, MDCK cells, read-out: EC50 values, range across influenza A and B viruses

Sequence of NA (P03468 whole entry): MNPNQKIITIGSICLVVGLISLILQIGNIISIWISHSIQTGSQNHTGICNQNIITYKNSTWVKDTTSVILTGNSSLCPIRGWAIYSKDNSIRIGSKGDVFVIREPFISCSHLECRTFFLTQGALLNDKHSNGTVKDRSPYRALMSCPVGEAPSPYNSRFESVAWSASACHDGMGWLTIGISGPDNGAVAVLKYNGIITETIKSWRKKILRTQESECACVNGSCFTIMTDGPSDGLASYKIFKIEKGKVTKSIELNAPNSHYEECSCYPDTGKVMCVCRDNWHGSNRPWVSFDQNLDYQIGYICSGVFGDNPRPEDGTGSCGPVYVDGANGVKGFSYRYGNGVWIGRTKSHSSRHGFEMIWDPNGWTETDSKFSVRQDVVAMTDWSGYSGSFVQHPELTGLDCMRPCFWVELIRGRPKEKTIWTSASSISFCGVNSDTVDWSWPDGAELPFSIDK

Molecule	EC50 [1, 15]	EC50 [2, 16]	EC50 [3]	CC50 at 3 days [4]	other results
NC12CC3CC(CC(C3)C1)C2 [AMT, amantadine hydrochloride, reference compound]	> 300 µM	1.6 µM	> 300 µM		CC50 at 3 days ([4]; mock-infected MDCK cells): > 300 µM
CCc1cc2c(cc1-c1cc3ccc(OC)c(OC)c3c(=O)n1C)OCO2 [Compound 1, 3-(6-ethylbenzo[d][1,3]dioxol-5-yl)-7,8-dimethoxy-2-methylisoquinolin-1(2H)]	0.2 µM	0.3 µM	0.6 µM	39 µM	EC50 [5, 17]: 0.2 to 0.6 µM; antiviral activity on exposure during viral adsorption [6]: failed to induce antiviral activity; inhibition at 10 µM ([6]; Influenza A virus, PR8, 7 h, read-out: inhibition of plaque formation): > 80%; viral polymerase activity [7]: suppressed viral RNA replication/transcription; progeny virus production (plaque assay) [8]: reducing the number of viral progeny released into the culture supernatant; cell death (MTT) [9]: > 40%; viral protein expression (Western blot) [10]: reducing the expression of viral proteins, including NP and HA; NP-positive cells (confocal microscopy) [11]: few or no NP-positive cells; viability at 1 day, 11.11 µM [12]: 80%; cell death ([13]; incubation for 2 days, concentrations > 0.41 µM, fluorescein diacetate): > 40%
O=c1[nH]c(-c2ccccc2)cc2ccccc12 [Compound 2, 3-phenylisoquinolone]	45 µM	73.4 µM	88.1 µM	> 300 µM	
O=c1[nH]c(-c2ccccc2O)cc2ccccc12 [Compound 3]	57 µM	103 µM	65 µM	> 300 µM	
O=c1[nH]c(-c2ccccc2CO)cc2ccccc12 [Compound 4]	52.4 µM	81.3 µM	17.2 µM	> 300 µM	
COc1ccccc1-c1cc2ccccc2c(=O)[nH]1 [Compound 5]	> 120 µM	> 120 µM	1.4 µM	120 µM	
Cc1cccc(-c2cc3c(N(C)C)cccc3c(=O)[nH]2)c1 [Compound 6]	> 300 µM	> 300 µM	58.7 µM	> 300 µM	
Cc1ccc(-c2cc3c(N(C)C)cccc3c(=O)[nH]2)cc1 [Compound 7]	> 300 µM	> 300 µM	> 300 µM	> 300 µM	
CN(C)c1cccc2c(=O)[nH]c(-c3ccc(Cl)cc3)cc12 [Compound 8]	> 300 µM	> 300 µM	> 300 µM	> 300 µM	
CN(C)c1cccc2c(=O)[nH]c(-c3ccc(Br)cc3)cc12 [Compound 9]	> 300 µM	> 300 µM	> 300 µM	> 300 µM	
COc1ccc(-c2cc3cc(C)ccc3c(=O)[nH]2)cc1OC [Compound 11]	32.3 µM	94.5 µM	74.8 µM	> 300 µM	
Cc1ccc2c(=O)[nH]c(-c3c(C)cccc3C)cc2c1 [Compound 12]	> 300 µM	> 300 µM	> 300 µM	> 300 µM	
COc1ccc(-c2[nH]c(=O)c3ccc(C)cc3c2Br)cc1OC [Compound 13]	177 µM	172 µM	> 300 µM	> 300 µM	
Cc1ccc2c(=O)[nH]c(-c3c(C)cccc3C)c(Br)c2c1 [Compound 14]	> 300 µM	> 300 µM	> 300 µM	> 300 µM	
Cn1c(-c2ccccc2C=O)cc2ccccc2c1=O [Compound 15]	> 300 µM	> 300 µM	> 300 µM	> 300 µM	
Cn1c(-c2ccccc2O)c(C=O)c2ccccc2c1=O [Compound 16]	> 148 µM	> 148 µM	> 148 µM	148 µM	
CCc1cc2c(cc1-c1cc3ccc(OC)c(O)c3c(=O)n1C)OCO2 [Compound 17]	36.8 µM	5.8 µM	> 109 µM	109 µM	EC50 ([5]; influenza A strains only (PR8, HK), read-out: EC50 values, range against influenza A viral strains): 5.8 to 36.8 µM
C=Cc1cc2c(cc1-c1cc3ccc(OC)c(OC)c3c(=O)n1C)OCO2 [Compound 18]	2.8 µM	1.4 µM	1.1 µM	40.3 µM	
COc1ccc2cc(-c3cc4c(cc3CCO)OCO4)n(C)c(=O)c2c1OC [Compound 19]	59.9 µM	46.2 µM	22.2 µM	> 300 µM	EC50 [5, 17]: 22.2 to 59.9 µM
COc1ccc2cc(-c3cc4c(cc3CCO)OCO4)[nH]c(=O)c2c1OC [Compound 20]	29.8 µM	11.9 µM	15.6 µM	> 300 µM	cell death ([13]; 300 µM): approximately 30%
COc1cc2cc(-c3ccccc3)[nH]c(=O)c2cc1OC [Compound 21, 6,7-dimethoxy-3-phenylisoquinolone]	18.5 µM	10.9 µM	9.9 µM	> 300 µM	EC50 [5, 17]: 9.9 to 18.5 µM; inhibitory effect on NA activity [14]: no inhibitory effect; viral polymerase activity [7]: efficiently suppressed viral polymerase activity; progeny virus production (plaque assay) [8]: inhibited progeny virus production into MDCK culture supernatants in a dose-dependent manner
COc1cc2cc(-c3ccccc3O)[nH]c(=O)c2cc1OC [Compound 22]	> 300 µM	> 300 µM	> 300 µM	> 300 µM	
COc1cc2cc(-c3cccc(C)c3)[nH]c(=O)c2cc1OC [Compound 23]	> 300 µM	> 300 µM	> 300 µM	> 300 µM	
CCC(CC)O[C@@H]1C=C(C(=O)O)C[C@H](N)[C@H]1NC(C)=O [OSV-C, oseltamivir carboxylate, reference compound]	0.05 µM	0.03 µM	0.37 µM	> 300 µM	
NC(=O)c1ncn([C@@H]2O[C@H](CO)[C@@H](O)[C@H]2O)n1 [RBV, ribavirin, reference compound]			48.4 µM		EC50 ([1]; MDCK): 25 µM; EC50 ([2]; H3N2, MDCK): 43.8 µM; CC50 at 3 days ([4]; mock-infected MDCK cells): > 300 µM
(-)-epigallocatechin-3-gallate [EGCG, reference compound]					antiviral activity on exposure during viral adsorption [6]: blocked PR8 infection completely
